Assays:
Anopheles albimanus = experiment: Olfactometer attraction test of compounds and compositions; format: in vivo;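 further: olfactometer with a treatment port and a matching control port using identical delivery device and conditions, both opened together, three tests per battery, each run in its own cage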
Aedes aegypti = experiment: Olfactometer attraction test, treatment port vs control port, approximately 75 female mosquitoes; format: in vivo; details: for Δ [(Resp with LA) − Resp] (%): difference between response with L-lactic acid and response alone; for Response with Ace (%): base compound together with acetone; for Δ [(Resp with Ace) − Resp] (%): difference between response with acetone and response alone
[1] = compound 500 μL together with L-lactic acid
[2] = compound alone, high dose of 500 μL
[3] = base compound alone (mode of action similar to lactic acid)
[4] = single compound, dose 500 (μL), 60 mL glass petri dish, Aedes aegypti attraction
[5] = no Base, Activator1 dose 500, 60 mL glass petri dish

Row | Compound | Response with L-LA (%) (Aedes aegypti; [1]) | Response (%) (Aedes aegypti; [2]) | Δ [(Resp with LA) − Resp] (%) (Aedes aegypti) | further results
1 | O=C(O)CC(O)C(=O)O (racemic) [DL-Malic Acid] |  |  |  | % caught (Anopheles albimanus; single substance, Crys dish (crystalline solid)): 0.0%
2 | CC(Cl)(Cl)Cl [1,1,1-Trichloroethane] |  |  |  | % caught (Anopheles albimanus; single treatment, 500 μL): 61.0%
3 | ClCC(Cl)Cl [1,1,2-Trichloroethane] |  |  |  | % caught (Anopheles albimanus; single treatment, 500 μL): 64.4%
4 | O=C(CCl)C(Cl)Cl [1,1,3-Trichloroacetone] |  |  |  | % caught (Anopheles albimanus; single treatment, 500 μL): 5.6%
5 | CN1CCNCC1 [1-Methylpiperazine] |  |  |  | % caught (Anopheles albimanus; single treatment, 500 μL): 1.3%
6 | Cn1cccc1 [1-Methylpyrrole] |  |  |  | % caught (Anopheles albimanus; single treatment, 500 μL): 10.7%
7 | CCCCCCCCCO [1-Nonanol] |  |  |  | % caught (Anopheles albimanus; single treatment, 500 μL): 4.1%
8 | C=CC(O)CCCCC (centres unmarked) [1-Octen-3-ol] |  |  |  | % caught (Anopheles albimanus; single treatment, 500 μL): 24.0%
9 | C=CC(O)CCCC (centres unmarked) [1-hepten-3-ol] | 15 | 10 | 5 | attraction of various mixtures and items (Aedes aegypti; default LA 200 μg, other chemicals 500 μL unless specified, containers as in the label): 7%
10 | C=CCCCCC [1-heptene] | 19 | 5 | 14 | Response (%) (Aedes aegypti; [3]): 4%; Response with Ace (%) (Aedes aegypti): 34%; Δ [(Resp with Ace) − Resp] (%) (Aedes aegypti): 30%; Response Avg % (Aedes aegypti; [4]): 5.0%
11 | C=CCCCCCCC [1-nonene] | 8 | 6 | 2 | Response (%) (Aedes aegypti; [3]): 6%; Response with Ace (%) (Aedes aegypti): 54%; Δ [(Resp with Ace) − Resp] (%) (Aedes aegypti): 48%
12 | C=CCCCCCC [1-octene] | 42 | 38 | 4 | Response (%) (Aedes aegypti; [3]): 38%; Response with Ace (%) (Aedes aegypti): 63%; Δ [(Resp with Ace) − Resp] (%) (Aedes aegypti): 25%
13 | CC=CC(C)=O [3-penten-2-one] | 49 | 11 | 38 | 
14 | C[C@@H](O)C(=O)O [D-lactic acid] |  |  |  | Response (%) (Aedes aegypti; [3]): 8%; Response with Ace (%) (Aedes aegypti): 82%; Δ [(Resp with Ace) − Resp] (%) (Aedes aegypti): 74%
15 | C[S+](C)[O-] [Dimethylsulfoxide] |  |  |  | Response Avg % (Aedes aegypti; [4]): 3.0%
16 | C=O [Formaldehyde] |  |  |  | Response Avg % (Aedes aegypti; [4]): 1.0%
17 | CC(C)C=O [Isobutanal] |  |  |  | Response Avg % (Aedes aegypti; [5]): 13.0%

Row | Compound | Response with L-LA (%) (Aedes aegypti; [1]) | Response (%) (Aedes aegypti; [2]) | Δ [(Resp with LA) − Resp] (%) (Aedes aegypti) | further results
18 | CO [MeOH] |  |  |  | Response Avg % (Aedes aegypti; [5]): 10.0%
19 | CC=O [acetaldehyde] | 29 | 8 | 21 | 
20 | CC#N [acetonitrile] | 81 | 27 | 54 | 
21 | BrC(Br)Br [bromoform] | 64 | 27 | 37 | 
22 | O=C=O [carbon dioxide, reference compound] |  |  |  | Response Avg % (Aedes aegypti; CO2 alone, dose 0.5, Aedes aegypti attraction): 4.0%; Response with L-LA (%) (Aedes aegypti; carbon dioxide 5 ml/min with L-lactic acid): 68%
23 | CCOCC [diethyl ether] | 56 | 25 | 31 | 
24 | C[S+](C)[O-] [dimethyl sulfoxide] | 30 | 3 | 27 | 
25 | CCO [ethanol] | 57 | 9 | 48 | 
26 | C=O [formaldehyde (37%), formaldehyde] | 5 | 1 | 4 | 
27 | O=C(O)CO [glycolic acid] |  |  |  | Response (%) (Aedes aegypti; [3]): 17%; Δ [(Resp with Ace) − Resp] (%) (Aedes aegypti): 64%
28 | CC(C)C=O [isobutyraldehyde] | 32 | 13 | 19 | 
29 | CO [methanol] | 66 | 10 | 56 | 
30 | CCCCCCCCC=O [nonanal] |  |  | 10 | 
31 | CCC(=O)O [propanoic acid] | 1 | 3 | −2 | Response Avg % (Aedes aegypti; [4]): 3.0%
32 | O=C(O)C(O)C(O)C(=O)O (centres unmarked) [tartaric acid] |  |  |  | Response (%) (Aedes aegypti; [3]): 9%; Response with Ace (%) (Aedes aegypti): 67%; Δ [(Resp with Ace) − Resp] (%) (Aedes aegypti): 58%
33 | Cc1ccccc1 [toluene] | 59 | 7 | 52 | 
